From US12590062B2, “PD-1/PD-L1 inhibitors” (Gilead Sciences, Inc., priority 2017, dated 2026)

Tests used:
[1] = molecular target: PD-1/PD-L1 (Homo sapiens, UniProt Q9NZQ7); experiment: PD-1/PD-L1 biochemical protein-protein interaction assay (ALPHA); assay type: binding; conditions: 0.3 nM His tagged PD-L1, 2.5 nM biotinylated Fc-PD-1, 60 minutes at 25° C., read-out: IC50 PD-L1-PD-1 Alpha IC50-mono PD-L1-fcP-D1
Procedure, shortened: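 Compounds are tested for blocking the PD-1/PD-L1 extracellular-domain interaction using an ALPHA bead assay, in which inhibition lowers the luminescent signal. Reactions run 60 min at 25° C with 0.3 nM His-PD-L1 and 2.5 nM biotinylated Fc-PD-1. IC50 values come from four-parameter fits.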

[2] = molecular target: T1, interaction between the recombinant extracellular domain (ECD) of PD-1 and native cell-bound PD-L1 (Homo sapiens, UniProt Q9NZQ7); experiment: CHO/PD-L1 cell capture assay; assay type: cell-based; conditions: CHO cells overexpressing PD-L1, pre-incubated 1 hr with compound, captured on biotinylated Fc-PD-1 coated plates, 75 min at room temperature
T1 construct: expressed in transfected cells
T1 sequence (Q9NZQ7 19-290): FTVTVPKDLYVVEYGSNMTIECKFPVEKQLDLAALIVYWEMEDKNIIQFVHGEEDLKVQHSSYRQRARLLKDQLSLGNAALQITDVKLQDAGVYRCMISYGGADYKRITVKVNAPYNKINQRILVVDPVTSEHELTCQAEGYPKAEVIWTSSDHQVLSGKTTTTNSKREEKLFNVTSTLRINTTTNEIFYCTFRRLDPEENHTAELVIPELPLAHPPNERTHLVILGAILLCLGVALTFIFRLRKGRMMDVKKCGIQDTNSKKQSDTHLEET
Procedure, shortened: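 CHO cells stably overexpressing PD-L1 were pre-incubated 1 hr with compound, then captured 75 min at room temperature on biotinylated Fc-PD-1 ECD bound to streptavidin plates. After glutaraldehyde/Draq5 fixation-staining, captured cells were counted by high-content microscopy; EC50 from four-parameter dose-response fits.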

[3] = molecular target: T2, PD-1/PD-L1 interaction (Homo sapiens, UniProt Q9NZQ7); experiment: PD-1/PD-L1 NFAT reporter co-culture assay; assay type: cell-based; conditions: Jurkat PD-1 NFAT-luciferase cells co-cultured with aAPC-PD-L1 CHO cells, 6 hrs at 37° C.; read-out: EC50 NFAT Luciferase
T2 construct: expressed in transfected cells; host or cells: CHO cells (aAPC-PD-L1) co-cultured with Jurkat cells overexpressing PD-1 and an NFAT-luciferase reporter
T2 sequence (Q9NZQ7 19-290): as above
Procedure, shortened: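 CHO aAPC-PD-L1 seeded overnight; PD-1/NFAT-luc Jurkat + cpd in RPMI 1640, 2% FBS added at once; 6 h, 37 °C; ONE-Glo luminescence; EC50, 4-parameter fit.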

Chain of PD-1/PD-L1 (Q9NZQ7 19-238 limits assumed): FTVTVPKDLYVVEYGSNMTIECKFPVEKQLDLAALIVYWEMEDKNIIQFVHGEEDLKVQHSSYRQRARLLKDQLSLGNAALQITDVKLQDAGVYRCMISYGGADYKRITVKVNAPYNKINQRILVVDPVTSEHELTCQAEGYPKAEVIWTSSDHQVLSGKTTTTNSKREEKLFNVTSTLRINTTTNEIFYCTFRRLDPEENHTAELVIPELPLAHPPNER

SMILES | IC50 [1] [nM] | EC50 [2] [nM] | EC50 [3] [nM]
COc1nc(OC2CCc3c(-c4cccc5c4CCC5Oc4ccc(CNC[C@@H](O)CC(=O)O)c(OC)n4)cccc32)ccc1CNC[C@@H](O)CC(=O)O (stereo partly drawn) [Example 13, (3S,3′S)-4,4′-(((((2,2′,3,3′-tetrahydro-1H,1′H-[4,4′-biindene]-1,1′-diyl)bis(oxy))bis(2-methoxypyridine-6,3-diyl))bis(methylene))bis(azanediyl))bis(3-hydroxybutanoic acid)] | 2.2 | 457 | 4800
Cc1c(COc2cc(OCc3cncc(C#N)c3)c(CNCCO)cc2Cl)cccc1-c1cccc(COc2cc(OCc3cncc(C#N)c3)c(CNCCO)cc2Cl)c1 [Example 20, 5,5′-((((((2-methyl-[1,1′-biphenyl]-3,3′-diyl)bis(methylene))bis(oxy))bis(4-chloro-6-(((2-hydroxyethyl)amino)methyl)-3,1-phenylene))bis(oxy))bis(methylene))dinicotinonitrile] | 12.6 | 752 | 1200
COc1nc(OCc2cccc(-c3cccc(COc4nc(OC)c(CNC[C@@H](O)CC(=O)O)cc4Cl)c3C)c2C)c(Cl)cc1CNC[C@@H](O)CC(=O)O [Example 29, (3S,3′S)-4,4′-((((((2,2′-dimethyl-[1,1′-biphenyl]-3,3′-diyl)bis(methylene))bis(oxy))bis(5-chloro-2-methoxypyridine-6,3-diyl))bis(methylene))bis(azanediyl))bis(3-hydroxybutanoic acid)] | 0.8 | 218 | 244
Cc1c(COc2nc(OCc3cncc(C#N)c3)c(CNCCO)cc2Cl)cccc1-c1cccc(COc2nc(OCc3cncc(C#N)c3)c(CNCCO)cc2Cl)c1C [Example 35, 5,5′-((((((2,2′-dimethyl-[1,1′-biphenyl]-3,3′-diyl)bis(methylene))bis(oxy))bis(5-chloro-3-(((2-hydroxyethyl)amino)methyl)pyridine-6,2-diyl))bis(oxy))bis(methylene))dinicotinonitrile] | 15.6 | 264 | 296
CCCc1cc(CNCCO)c(OCc2cncc(C#N)c2)cc1OCc1cccc(-c2cccc(COc3cc(OCc4cncc(C#N)c4)c(CNCCO)cc3CCC)c2C)c1C [Example 39, 5,5′-((((((2,2′-dimethyl-[1,1′-biphenyl]-3,3′-diyl)bis(methylene))bis(oxy))bis(6-(((2-hydroxyethyl)amino)methyl)-4-propyl-3,1-phenylene))bis(oxy))bis(methylene))dinicotinonitrile] | 167 | 267 | ≥ 50000
COc1nc(OCc2cccc(-c3cccc(COc4ccc(CN[C@@](C)(CO)C(=O)O)c(OC)n4)c3C)c2C)ccc1CN[C@@](C)(CO)C(=O)O [Example 61, (2S,2′S)-2,2′-((((((2,2′-dimethyl-[1,1′-biphenyl]-3,3′-diyl)bis(methylene))bis(oxy))bis(2-methoxypyridine-6,3-diyl))bis(methylene))bis(azanediyl))bis(3-hydroxy-2-methylpropanoic acid)] | 0.7 | 200 | 6780
Cc1c(COc2cc(OCc3cncc(C#N)c3)c(CNCCO)cc2Cl)cccc1-c1cccc(COc2cc(OCc3cncc(C#N)c3)c(CNCCO)cc2Cl)c1C [Example 68, 5,5′-((((((2,2′-dimethyl-[1,1′-biphenyl]-3,3′-diyl)bis(methylene))bis(oxy))bis(4-chloro-6-(((2-hydroxyethyl)amino)methyl)-3,1-phenylene))bis(oxy))bis(methylene))dinicotinonitrile] | 10.3 | 279 | 553

Molecules with a lower IC50 [1], results first:

IC50 [1] [nM] | EC50 [2] [nM] | EC50 [3] [nM] | SMILES
0.6 | 148 | 193 | COc1nc(OCc2cccc(-c3cccc(COc4nc(OC)c(CNC[C@@H](O)CC(=O)O)cc4Br)c3C)c2C)c(Br)cc1CNC[C@@H](O)CC(=O)O [Example 113, (3S,3′S)-4,4′-((((((2,2′-dimethyl-[1,1′-biphenyl]-3,3′-diyl)bis(methylene))bis(oxy))bis(5-bromo-2-methoxypyridine-6,3-diyl))bis(methylene))bis(azanediyl))bis(3-hydroxybutanoic acid)]
0.5 | 102 | 340 | COc1nc(OC2CCc3c(-c4cccc5c4CCC5Oc4nc(OC)c(CNC[C@@H](O)CC(=O)O)cc4Cl)cccc32)c(Cl)cc1CNC[C@@H](O)CC(=O)O (stereo partly drawn) [Example 9, (3S,3′S)-4,4′-(((((2,2′,3,3′-tetrahydro-1H,1′H-[4,4′-biindene]-1,1′-diyl)bis(oxy))bis(5-chloro-2-methoxypyridine-6,3-diyl))bis(methylene))bis(azanediyl))bis(3-hydroxybutanoic acid)]
0.4 | 170 | 1100 | COc1nc(O[C@H]2CCc3c(-c4cccc5c4CC[C@@H]5Oc4ccc(CNC[C@@H](O)CC(=O)O)c(OC)n4)cccc32)ccc1CNC[C@@H](O)CC(=O)O [Example 11, (3S,3′S)-4,4′-((((((1S,1′S)-2,2′,3,3′-tetrahydro-1H,1′H-[4,4′-biindene]-1,1′-diyl)bis(oxy))bis(2-methoxypyridine-6,3-diyl))bis(methylene))bis(azanediyl))bis(3-hydroxybutanoic acid)]
0.4 | 321 | 195 | Cc1c(COc2nc(OCc3cncc(C#N)c3)c(CNC[C@@H](O)CC(=O)O)cc2Cl)cccc1-c1cccc(COc2nc(OCc3cncc(C#N)c3)c(CNC[C@@H](O)CC(=O)O)cc2Cl)c1C [Example 34, (3S,3′S)-4,4′-((((((2,2′-dimethyl-[1,1′-biphenyl]-3,3′-diyl)bis(methylene))bis(oxy))bis(5-chloro-2-((5-cyanopyridin-3-yl)methoxy)pyridine-6,3-diyl))bis(methylene))bis(azanediyl))bis(3-hydroxybutanoic acid)]
0.4 | 110 | 5270 | Cc1c(-c2ccc(OCCNC[C@@H](O)CC(=O)O)cc2)cccc1-c1cccc(-c2ccc(OCCNC[C@@H](O)CC(=O)O)cc2)c1C [Example 106, (3S,3′S)-4,4′-((((2′,2″-dimethyl-[1,1′:3′,1″:3″,1′″-quaterphenyl]-4,4′″-diyl)bis(oxy))bis(ethane-2,1-diyl))bis(azanediyl))bis(3-hydroxybutanoic acid)]
0.3 | 42.1 | 127 | Cc1c(COc2nc(OCc3cncc(C#N)c3)c(CNC[C@H](O)CC(=O)O)cc2Cl)cccc1-c1cccc(COc2nc(OCc3cncc(C#N)c3)c(CNC[C@H](O)CC(=O)O)cc2Cl)c1C [Example 32, (3R,3′R)-4,4′-((((((2,2′-dimethyl-[1,1′-biphenyl]-3,3′-diyl)bis(methylene))bis(oxy))bis(5-chloro-2-((5-cyanopyridin-3-yl)methoxy)pyridine-6,3-diyl))bis(methylene))bis(azanediyl))bis(3-hydroxybutanoic acid)]
0.3 | 149 | 123 | Cc1c(COc2nc(OCc3cncc(S(C)(=O)=O)c3)c(CNC[C@@H](O)CC(=O)O)cc2Br)cccc1-c1cccc(COc2nc(OCc3cncc(S(C)(=O)=O)c3)c(CNC[C@@H](O)CC(=O)O)cc2Br)c1C [Example 42, (3S,3′S)-4,4′-((((((2,2′-dimethyl-[1,1′-biphenyl]-3,3′-diyl)bis(methylene))bis(oxy))bis(5-bromo-2-((5-(methylsulfonyl)pyridin-3-yl)methoxy)pyridine-6,3 diyl))bis(methylene))bis(azanediyl))bis(3-hydroxybutanoic acid)]
0.2 | 248 | 188 | Cc1c(COc2nc(OCc3cncc(S(C)(=O)=O)c3)c(CN[C@@](C)(CO)C(=O)O)cc2Br)cccc1-c1cccc(COc2nc(OCc3cncc(S(C)(=O)=O)c3)c(CN[C@@](C)(CO)C(=O)O)cc2Br)c1C [Example 41, (2S,2′S)-2,2′-((((((2,2′-dimethyl-[1,1′-biphenyl]-3,3′-diyl)bis(methylene))bis(oxy))bis(5-bromo-2-((5-(methylsulfonyl)pyridin-3-yl)methoxy)pyridine-6,3-diyl))bis(methylene))bis(azanediyl))bis(3-hydroxy-2-methylpropanoic acid)]
0.1 | 38.1 | 29 | COc1nc(O[C@H]2CCc3c(-c4cccc5c4CC[C@@H]5Oc4nc(OC)c(CN[C@@](C)(CO)C(=O)O)cc4Br)cccc32)c(Br)cc1CN[C@@](C)(CO)C(=O)O [Example 5, (2S,2′S)-2,2′-((((((1S,1′S)-2,2′,3,3′-tetrahydro-1H,1′H-[4,4′-biindene]-1,1′-diyl)bis(oxy))bis(5-bromo-2-methoxypyridine-6,3-diyl))bis(methylene))bis(azanediyl))bis(3-hydroxy-2-methylpropanoic acid)]
